Results reported in patent US20250127787A1, “METHODS FOR TREATING PERIPHERAL NEUROPATHY” (University of Pittsburgh - Of the Commonwealth System of …, priority 2021, published 2025).
“Also recorded” adds a separate entry of the source.

Tests used:
Assay type in all cases: in vivo
[1] = test system: glutathione peroxidase (GPx); assay: Glutathione peroxidase activity in CYP-CIPN rat tissues; conditions: 8-AG 5 mg/kg/day in drinking water
Description: (§1) Animals. This study employed female Harlan Sprague Dawley (HSD) rats (3-4 mo; Envigo, Indianapolis, IN) and were divided into the following groups: 1) Control, 2) Cyclophosphamide (CYP, 75 mg/kg i.p. in saline vehicle; administered on days 0, 3 and 6); 3) 8-aminoguanine (8-AG; 5 mg/kg/day in drinking water; beginning 2 weeks prior to CYP and continuing until sacrifice (day 8)). The dose of 8-AG is based on our preliminary and published experiments. […] The investigation conforms to the Guide for the Care and Use of Laboratory Animals published by the US National Institutes of Health (NIH Publication No. 85-23, revised 1996). […]
(§2) Western immunoblotting: Following the testing paradigms, rats were deeply anesthetized and tissues (e.g., epidermis, peripheral sciatic nerves, spinal cord segments (L3-L5) and dorsal root ganglia (L3-L5) were removed, and a portion of each preparation was homogenized using Lysing Matrix D in a FASTPREP® 24 instrument (MP Biomedicals, Solon, OH) in HBSS [5 mM KCl, 0.3 mM KH2PO4, 138 mM NaCl, 4 mM NaHO3, 0.3 mM Na2HCO3, 0.3 mM Na2HPO4, 5.6 mM glucose and 10 mM Hepes, pH 7.4 containing complete protease inhibitor cocktail (1 tablet/10 ml, Roche, Indianapolis, IN)] and phosphatase inhibitor cocktail (Sigma, 1:100). […] The protein concentrations of the supernatants were determined using the Pierce BCA protein assay (Thermo Scientific, Rockford, IL). […]

protein carbonylation = assay: Protein carbonylation in CYP-CIPN rat hindpaw epidermis; conditions: 8-AG 5 mg/kg/day in drinking water
Description: as §1, §2

PGP 9.5 = PGP 9.5 immunocytochemistry of CYP-CIPN rat epidermis (nerve terminals, edema); conditions: fluorescent images, oral 8-AG
Description: Animals. This study employed female Harlan Sprague Dawley (HSD) rats (3-4 mo; Envigo, Indianapolis, IN) and were divided into the following groups: 1) Control, 2) Cyclophosphamide (CYP, 75 mg/kg i.p. in saline vehicle; administered on days 0, 3 and 6); 3) 8-aminoguanine (8-AG; 5 mg/kg/day in drinking water; beginning 2 weeks prior to CYP and continuing until sacrifice (day 8)). The dose of 8-AG is based on our preliminary and published experiments. […] The investigation conforms to the Guide for the Care and Use of Laboratory Animals published by the US National Institutes of Health (NIH Publication No. 85-23, revised 1996). In addition, all tissues (dorsal root ganglion, spinal cord, peripheral nerves and hindpaw epidermis) were removed from isoflurane anesthetized rats and the tissue was used for various experimental approaches as described below. At the end of tissue removal, animals were sacrificed by thoracotomy.
Immunocytochemistry: A portion of tissues (a 3 mm biopsy from the rat hindpaw food pad or epidermis) is placed overnight in fixative (4% PFA) and cryoprotected (30% sucrose-phosphate buffered saline). Fluorescence immunocytochemistry was used to process cross-sections (20 μm) using antibodies (validated in rat tissue) against PGP 9.5 (Invitrogen PA5-29012, neuron specific protein; 1:500 dilution). […]

## Nc1nc2[nH]c(N)nc2c(=O)[nH]1 [8-AG, 8-Aminoguanine]
[1]; epidermis
  effect on CYP-induced increase in GPx activity: significantly decreased; also recorded: restored values to that of a control state
[1]; peripheral (sciatic) nerves
  effect on CYP-induced increase in GPx activity: normalized; also recorded: prevented
Protein carbonylation
  effect on CYP-induced protein carbonylation: completely prevents; also recorded: restored values to that of a control state
PGP 9.5
  effect on CYP-induced gross edema: normalized
  effect on CYP-induced neural damage (ragged/damaged fine nerve terminals, PGP 9.5 distribution): normalized
